In one data set the test system is db/db mice. The data set can be described thus: Increase in HDL-cholesterol levels in db/db mice. The format is in vivo. The following applies: for Increase in HDL-cholesterol levels (%): further experiment, oral twice daily 14 days, dose equimolar to 25 mg/kg of ST2195, 8 hours after last treatment. Here is the method: Increase in HDL-Cholesterol Levels in db/db Mice
In this experiment db/db mice were used in which PPARα expression is above normal (Memon et al., Endocrinology 2000, 4021-4031) and HDL-cholesterol levels are substantially elevated (Silver et al., J Biol Chem 1999, 274: 4140-4146).
The C57BL[KsJ db/db mice were acclimatised for one week in standard conditions (22±2° C.; 55±15% humidity; 15-20 air changes/hour; 12 hours light/darkness cycle with light from 7.00 a.m. to 7 p.m.) with a standard 4 RF21 diet (Mucedola). Blood samples were taken in post-absorption conditions (fasting from 8.30 a.m. to 4.30 p.m.) from the caudal vein with the aid of a Jelco 22G catheter (Johnson and Johnson). Glucose, insulin, triglyceride, cholesterol, free fatty acid and urea levels were checked in plasma for a homogeneous distribution of the mice in the treatment groups.
At the beginning of treatment the animals' body weight was checked and arrangements were made to monitor their water and feed consumption. […]
The compound tested, obtained as described in example 4 (ST 1929) was administered at the dose of 24 mg/kg in 10 ml/kg of vehicle (1% CMC containing Tween 80 0.5% in deionized H2O).
The other compounds tested were also administered at a dose equivalent to that in example 4.
Ciprofibrate, a known PPARα agonist (Varanasi et al., J Biol Chem 1996, 271: 2147-2155; Latruffe et al. Cell Biochem Biophys 2000, 32 Spring: 213-220) was administered at the dose of 20 mg/kg (Dwivedi et al., Toxicol Pathol 1989, 17: 16-26; Qi et al., Proc Natl Acad Sci USA 1999, 96: 1585-1590).
The animals were sacrificed (by decapitation) in conditions of post-absorption (fasting from 9.30 a.m. to 4.30 p.m.) 7 hours after the last treatment. The levels of a number of important lipid and carbohydrate metabolism parameters were determined in the serum.
The HDL-cholesterol levels were measured by treating the serum with phosphotungstic-acid-based precipitating reagent (ABX Diagnostics) which removes the chylomicrons, very low density and low density lipoproteins and determining the HDL-cholesterol levels in the supernatant with the aid of the Cholesterol Kit (ABX Diagnostics) and the Cobas Mira S Autoanalyzer (Roche).
In a further experiment, where the above reported ST2195 was used as reference compound, db/db mice were treated orally twice daily (8.30 a.m. and 6.30 p.m.) for 14 days with the test items (equimolar to 25 mg/kg of ST2 195) giving the following results reported in Table 3: […]

The next data set has as its target T1, Gal4DBD/PPARαLBD (Homo sapiens, UniProt Q07869).
T1 construct: expressed in transfected cells; host or cells: COS-7 (monkey kidney fibroblasts)
T1 sequence (Q07869 239-466 limits assumed): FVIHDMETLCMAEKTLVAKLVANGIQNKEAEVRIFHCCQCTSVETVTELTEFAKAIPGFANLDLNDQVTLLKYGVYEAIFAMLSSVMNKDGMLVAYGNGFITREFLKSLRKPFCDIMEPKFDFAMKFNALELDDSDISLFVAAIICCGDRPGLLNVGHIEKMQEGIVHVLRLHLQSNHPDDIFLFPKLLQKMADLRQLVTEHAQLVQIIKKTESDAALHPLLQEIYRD
The data set can be described thus: Transient transfection of COS-7 cells, Gal4DBD/PPARαLBD transactivation, CAT reporter (II method). In kind it is cell-based. As to conditions: for activation at 2 µM / activation at 20 µM / activation at 100 µM: read-out: percentage activation of the CAT reporter gene compared to reference compound WY-14.643 2 μM taken as 100%. The text has this: Transient Transfection of Eukaryotic Cells to Evaluate the Agonist Activity of PPARα Ligands (II Method)
An alternative transactivation system, which differs mainly in the way the receptor is positioned onto the DNA, and depending on how the event of ligand binding is translated into transcriptional activation, was used.
In this model eukaryotic cells were transiently transfected with an expression vector encoding a fusion protein between the DNA binding domain (DBD) of the yeast Gal4 transcription factor and the ligand binding domain (LBD) of the PPARα (Gal4DBD/PPARαLBD). The reporter vector containing 5 copies of the high affinity binding site for Gal4 (named UAS, upstream activating sequence) upstream of a strong viral promoter linked to the reporter gene chloramphenicol acetyltransferase (CAT), was co-transfected. This model offered some advantages, the most important of which was the absence of interference by endogenous receptors.
Besides expression and reporter vectors, cells were transfected with a control vector pCH110 that encodes the β-galactosidase enzyme to correct for differences in transfection efficiency.
A monkey kidney fibroblast cell line (COS-7) was used. Cells were co-transfected with the plasmid carrying the gene-reporter, the expression plasmid encoding the fusion protein Gal4DBD/PPARαLBD, and the control vector pCH110. Cells were then treated with increasing concentrations of test compounds and the CAT activity was measured. Untreated cells were used as control.
Monkey kidney fibroblasts (COS-7) were routinely grown in DMEM (Dulbecco's modified Eagle's medium) supplemented with 3.7 g/l sodium bicarbonate, 4 mM L-glutamine, 4.5 g/l glucose, 1 mM sodium piruvate and 10% v/v foetal bovine serum, in the presence of streptomycin 100 μg/ml and penicillin 100 U/ml.
COS-7 cells were transiently transfected by using the multi-component lipid-based FuGENE6 Transfection Reagent that complexes with and transports DNA into the cells during transfection. Cells were seeded at 1.2×10^5 cells/well, in 12-well plates, and cultured overnight at 37° C. in a 5% v/v carbon dioxide atmosphere. Two hours before transfection the culture medium was replaced by fresh serum-free medium and then transfection was performed with FuGENE6 Transfection Reagent according to the instructions of the manufacturer. Briefly, the transfection mixture containing (for each well) 0.8 μg of the expression vector, 1.6 μg of the reporter vector, 0.8 μg of the control vector and 9 μl of FuGENE6 Transfection Reagent was added directly to the cells in the presence of serum-free medium. After 5 hours the transfection medium was replaced by 1 ml of the complete culture medium with or without the test molecules at 3 different concentrations (2, 20 and 100 μM). 2 μM Wy-14,643, a known PPARα ligand, was used as positive control.
After 48 h, the cells were washed twice with 1 ml phosphate buffer (PBS) and then harvested by scraping them in TEN buffer (Tris [hydroxymethyl] aminomethane 10 mM pH 8, ethylenediamine tetraacetic acid 1 mM, pH 8, sodium chloride 0.1 M). Following centrifugation at room temperature, for 3 min at 1000 revs per minute (rpm), cells were resuspended with 60 μl of Lysis buffer (0.25M Tris-HCl, pH 8) and lysed by three rapid freeze/thaw cycles (three 5-minute cycles). Cell debris was then removed by centrifugating at 4° C., for 15 min at 15.000 revs per minute (rpm),. Glycerol (final 10% v/v) and β-mercaptoethanol (final 5 mM) were then added (final volume 75 μl) and the cell extracts were stored at −80° C. until assayed.
The CAT activity assay was performed as follows: 20 μl of cell lysate (pre-warmed at 65° C. for 10 min to deactivate internal deacetylase enzymatic activity) were added to 10 μl of 3.5 mg/ml n-butirryl-CoA, 5 μl ([…]) of [14C]-chloramphenicol and 65 μl of distilled H20 and incubated 2 h at 37° C. Reaction was blocked by adding 200 μl of the solution xylene/2,6,10,14 tetramethyl-pentadecane (in a 1:2 v/v mixture). […]
(In a reporter assay the amount or activity of a reporter protein is the signal.)

We go through 15 molecules from patent US20080027098A1, “Derivatives of alpha-phenylthiocarboxylic and alpha-phenyloxy-carboxylic acids useful for the treatment of diseases responding to PPARalpha activation” (SIGMA-TAU INDUSTRIE FARMACEUTICHE RIUNITE S.p.A., priority 2002, published 2008).

SMILES strings stand for the structures. Marks after values point to notes of the source that are not given here.

The term melting point denotes the temperature, or range, at which the solid turns liquid. The molecule `COC(=O)C(C)(C)Sc1cccc(OC(=O)Nc2ccc(C(F)(F)F)cc2)c1` returned a melting point of 66 to 67 °C.

`COC(=O)C(C)(C)Sc1ccc(OC(=O)Nc2ccc(C(F)(F)F)cc2)cc1` gave a melting point of 110 to 111 °C.

In the case of `CC(C)(Oc1ccc(CCNC(=O)c2ccc(Cl)cc2)cc1)C(=O)O` [Bezafibrate, reference compound], in the data set with db/db mice (24.8 mg/kg, 25 days), the “Increase in HDL/cholesterol levels (%)” value is recorded as “+14%”.

Turning to `CC(C)(Oc1ccc(C2CC2(Cl)Cl)cc1)C(=O)O` (stereo not drawn) [Ciprofibrate, reference compound], the “Increase in HDL/cholesterol levels (%)” value in the data set on db/db mice (oral twice daily, 20 mg/kg, 14 days) was “+52 ▴ %”.

On to `COC(=O)C(C)(C)Sc1ccc(OCCc2ccc(Cl)cc2)cc1` [ST1929], for which the “Increase in HDL/cholesterol levels (%)” value with db/db mice (oral twice daily, 24 mg/kg, 10 days) is “+80 ▴ %”.

In the case of `COC(=O)C(C)(C)Sc1ccc(OCCn2ccc3ccccc32)cc1` [ST1983], the “percentage activation of the CAT reporter gene compared to reference compound WY-14.643 2 μM taken as 100%” value at Gal4DBD/PPARαLBD (2 μM) is 150%; at Gal4DBD/PPARαLBD (20 μM), 391.2%; on Gal4DBD/PPARαLBD (100 μM), 1372%. For the same molecule, the “Increase in HDL-cholesterol levels (%)” value with db/db mice was “+69Δ %”.

On to `COC(=O)C(C)(C)Sc1cccc(OCCc2ccc3ccccc3c2)c1` [ST2167, methyl 2-[3-[2-(2-naphthyl)ethoxy]phenyl-thio]isobutyrate], for which the activation at 2 µM on Gal4DBD/PPARαLBD (2 μM) was 98.1%. The activation at 20 µM on Gal4DBD/PPARαLBD (20 μM) stood at 360%. The activation at 100 µM at Gal4DBD/PPARαLBD (100 μM) amounted to 463%. For the same molecule, the “Increase in HDL/cholesterol levels (%)” value in the data set with db/db mice (26.1 mg/kg, 25 days) is given as “+29ρ %”.

In the case of `COC(=O)C(C)(C)Sc1cccc(OCCc2ccc(Cl)cc2)c1` [ST2195, methyl 2-[3-[2-(4-chlorophenyl)ethoxy]phenyl-thio]isobutyrate], the “Increase in HDL/cholesterol levels (%)” value in the data set with db/db mice (25.0 mg/kg, 25 days) was “+20ρ %”. For the same molecule, the “Increase in HDL-cholesterol levels (%)” value with db/db mice was “+67Δ %”.

Take `COC(=O)C(C)(C)Sc1cccc(OCCc2ccc(Cl)cc2Cl)c1` [ST2534, methyl 2-[3-(2-(2,4-dichloro-phenyl)ethoxy)phenylthio]isobutyrate]: the activation at 2 µM at Gal4DBD/PPARαLBD (2 μM) was 113%. Also, the activation at 20 µM on Gal4DBD/PPARαLBD (20 μM) came out at 285%. The activation at 100 µM at Gal4DBD/PPARαLBD (100 μM) came out at 421%. Besides, in the data set on db/db mice, the “Increase in HDL-cholesterol levels (%)” value is recorded as “+61Δ %”.

As for `COC(=O)C(C)(C)Sc1ccc(OCCn2ccc3cc(OCc4ccccc4)ccc32)cc1` [ST2562, methyl 2-[4-[2-(1-(5-benzyloxy)indolyl)ethoxy]phenyl-thio]isobutyrate], the activation at 2 µM at Gal4DBD/PPARαLBD (2 μM) stood at 139%. The activation at 20 µM on Gal4DBD/PPARαLBD (20 μM) stood at 291%. Besides, the activation at 100 µM at Gal4DBD/PPARαLBD (100 μM) worked out at 249%.

As for `COC(=O)C(C)(C)Sc1ccc(OCCn2ccc3cc(OC)ccc32)cc1` [ST2577, methyl 2-[4-[2-(1-(5-methoxy)indolyl)ethoxy]phenyl-thio]isobutyrate], the activation at 2 µM on Gal4DBD/PPARαLBD (2 μM) is 98.6%. At Gal4DBD/PPARαLBD (20 μM), the activation at 20 µM stood at 269%. On Gal4DBD/PPARαLBD (100 μM), the activation at 100 µM was 255%.

In the case of `CC(C)(Sc1ccc(OCCn2ccc3ccccc32)cc1)C(=O)O` [ST2622, 2-[4-[2-(1-indolyl)ethoxy]phenyl-thio]-isobutyric acid], the activation at 2 µM at Gal4DBD/PPARαLBD (2 μM) amounted to 105%. In addition, at Gal4DBD/PPARαLBD (20 μM), the activation at 20 µM was 231%. The activation at 100 µM on Gal4DBD/PPARαLBD (100 μM) stood at 311%. The “Increase in HDL-cholesterol levels (%)” value with db/db mice is on record as “+54Δ %”.

`CC(C)(Sc1cccc(OCCc2ccc(Cl)cc2Cl)c1)C(=O)O` [ST2653, 2-[3-(2-(2,4-dichlorophenyl)ethoxy)phenyl-thio]-2-isobutyric acid]: on Gal4DBD/PPARαLBD (2 μM), the activation at 2 µM came out at 132%. In addition, the activation at 20 µM at Gal4DBD/PPARαLBD (20 μM) is 199%. In addition, the activation at 100 µM on Gal4DBD/PPARαLBD (100 μM) was 204%.

As to `COc1ccc2c(ccn2CCOc2ccc(SC(C)(C)C(=O)O)cc2)c1` [ST2733, 2-[4-[2-(1-(5-methoxy)indolyl)ethoxy]phenyl-thio]isobutyric acid], at Gal4DBD/PPARαLBD (2 μM), the activation at 2 µM amounted to 77.2%. The activation at 20 µM on Gal4DBD/PPARαLBD (20 μM) stood at 193%. Besides, the activation at 100 µM at Gal4DBD/PPARαLBD (100 μM) turned out to be 239%. Moreover, in the data set with db/db mice (second experiment, 26.4 mg/kg, 16 days), the “Increase in HDL/cholesterol levels (%)” value is reported as “+70[…] %”.

Regarding `CC(C)(Sc1ccc(OCCn2ccc3cc(OCc4ccccc4)ccc32)cc1)C(=O)O` [ST2740, 2-[4-[2-(1-(5-benzyloxy)indolyl)ethoxy]phenyl-thio]isobutyric acid], the activation at 2 µM at Gal4DBD/PPARαLBD (2 μM) came out at 150%. The activation at 20 µM on Gal4DBD/PPARαLBD (20 μM) stood at 177%. For the same molecule, the activation at 100 µM at Gal4DBD/PPARαLBD (100 μM) stood at 115%.
